From patent US9255150B2, “Remedies for pemphigus containing anti-Fas ligand antibodies” (PINCELL SRL, priority 2008, dated 2016)
Peptide text beside a SMILES is read from it. * marks the point of attachment. Cbz = O=C(OCc1ccccc1)*; CH2F = FC*

What was measured:
Format in all cases: cell-based, human
keratinocytes [1] = experiment: Pemphigus sera-induced cell detachment (acantholysis) of keratinocytes; conditions: pretreatment with Z-IETD-FMK 100 μM for 30 min or NOK2 15 μg/ml, then 72 hrs sera; FIG. 12B
keratinocytes [2] = experiment: Pemphigus sera-induced Dsg3 cleavage and caspase-8 activation in confluent keratinocytes, Western blotting; conditions: pretreatment with Z-IETD-FMK 100 μM for 30 min or NOK2 15 μg/ml, then 72 hrs sera; FIG. 12A
Procedure: To investigate whether the extrinsic apoptotic pathway is responsible for dsg cleavage, we pretreated confluent keratinocytes with caspase-8 inhibitor Z-IETD-FMK (100 μM for 30 min) or with anti-FasL (NOK2, 15 μg/ml)Ab. Then cells were incubated for 72 hrs with healthy or untreated pemphigus sera. Protein extracts from the culture were analyzed by Western blotting using anti-Dsg3 antibodies and anti-caspase-8 Ab. Vinculin was used as internal control. (FIG. 12A).

keratinocytes [3] = experiment: Pemphigus sera-induced keratinocyte apoptosis, TUNEL staining; conditions: sera pretreated with anti-FasL neutralizing antibody (2.5 mg per ml for 30 min) or Z-IETD-FMK (100 μM for 30 min); FIG. 6
Procedure: As apoptotic keratinocytes are abundantly expressed in pemphigus, we wanted to explore whether pemphigus sera are capable of inducing apoptosis in normal human keratinocytes. To this purpose, keratinocytes were plated in chamber slides and cultured in serum-free medium (KGM) up to preconfluence. Cells were then cultured in keratinocyte basal medium and treated for 48 h with the addition of 25% serum from either untreated patients or patients treated with systemic corticosteroids. Sera from healthy subjects were used as controls. Apoptosis was evaluated by TUNEL staining in situ. Approximately 100 cells were evaluated, in randomly selected fields, and the percentage of TUNEL-positive cells was counted.
FasL is one of the major triggers of the caspase-8 activated extrinsic apoptotic pathway. Therefore, we wanted to evaluate whether this pathway plays a role in pemphigus apoptosis. To this purpose, patient sera were pretreated with anti-FasL neutralizing antibody or caspase-8 inhibitor, and added to keratinocyte cultures. Keratinocytes were cultured in KGM and treated with pemphigus sera or with sera from untreated patients. Sera were pretreated with anti-FasL neutralizing antibody (2.5 mg per ml for 30 min) or caspase-8 inhibitor Z-IETD-FMK (100 μM for 30 min). Apoptosis was evaluated by TUNEL staining.

Compound: CC[C@H](C)[C@H](NC(=O)OCc1ccccc1)C(=O)N[C@@H](CCC(=O)OC)C(=O)N[C@H](C(=O)N[C@@H](CC(=O)OC)C(=O)CF)[C@@H](C)O [Z-IETD-FMK] (Cbz-IE(OMe)TD(OMe)-CH2F)
- cell detachment (i.e. acantholysis) induced by untreated pemphigus sera (keratinocytes [1]): prevented
- caspase-8 activation induced by untreated pemphigus sera (keratinocytes [2]): prevents
- dsg cleavage (Dsg3) induced by untreated pemphigus sera (keratinocytes [2]): prevents
- pemphigus sera-induced keratinocyte apoptosis (TUNEL staining) (keratinocytes [3]): partially prevented
